# In paper PMC10254852, “Design, Synthesis and Anticancer Evaluation of Nitroimidazole Radiosensitisers” (Molecules, 2023):
# Read-outs that look alike come from different tables or passages of the source.
# Columns and labels:
# HCT116/54C cells [1] = experiment: In vitro cytotoxicity, 4 h exposure oxic/anoxic, 5-day regrowth, sulforhodamine B; assay type: cell-based, human; conditions: HCT116/54C; for IC50: Homo sapiens, 4 h exposure, mean ± SEM, n = 3–4
# Text: (§1) This allowed derivation of hypoxia cytotoxicity ratios (HCR) as IC50(oxic)/IC50(anoxic) in an HCT116 subclone HCT116/54C and two HNSCC cell lines, FaDu and UT-SCC-74B (Table 2).
# (§2) HCT116/54C is an HCT116 subline that originated from a mixed culture with UT-SCC-54C cells, which was supplied alongside UT-SCC-74B by Prof. Bradly Wouters (University Health Network, Toronto, ON, Canada). HCT116/54C and UT-SCC-74B cells were passaged in minimum essential media (MEM, ThermoFisher Scientific, Waltham, MA, USA) with 10% foetal calf serum (FCS, Moregate Biotech, Hamilton, New Zealand), 4.5 mg/mL D-glucose (Sigma-Aldrich, St. Louis, MO, USA) and 20 mM HEPES (Sigma-Aldrich). FaDu cells were sourced from American Type Culture Collection and cultured in αMEM (ThermoFisher Scientific) with 10% FCS. All cell lines were confirmed mycoplasma-free by PlasmoTest (InvivoGen, San Diego, CA, USA) and were derived from STR-authenticated cryopreserved stocks. Log-phase cells were seeded into 96-well plates at 800 cells/well for HCT116/54C and 1500 cells/well for FaDu. […] After drug washout, cells were grown and stained as for the oxic IC50 assays. The hypoxic cytotoxicity ratio HCR was determined as HCR = IC50(oxic)/IC50(anoxic).
# UT-SCC-74B cells = experiment: as above; assay type: cell-based, human; conditions: for IC50: Homo sapiens, 4 h exposure, mean ± SEM
# Text: as §1, §2
# FaDu cells = experiment: as above; assay type: cell-based; conditions: for IC50: Homo sapiens, 4 h exposure, mean ± SEM
# Text: as §1, §2
# HCT116/54C cells [2] = experiment: In vitro radiosensitisation under anoxia, clonogenic survival; assay type: cell-based, human; conditions: compound 1 mM, radiation dose for 1% survival/radiation dose for 1% survival with compound, mean ± SEM
# Procedure: Next, we evaluated in vitro radiosensitisation by using a representative subset of nitroimidazole compounds in HCT116/54C cells with a clonogenic survival endpoint. Radiosensitisation was determined by treating cells under anoxia with a range of radiation doses alone and with compounds at equimolar doses (1 mM). Sensitiser enhancement ratios (SER) were calculated as the ratio of radiation dose required for 1% clonogenic survival alone or with compound (Table 3).
# Cells were seeded onto 96-well plates at 10^5 cells per well and allowed to attach for 2 h. […] The plates were irradiated (Eldorado 78 ^60Co teletherapy unit, ~2 Gy/min) with 15 Gy under anoxia at room temperature for SR experiments. A metal wedge placed on the top of the metal chamber was used to achieve a graduated radiation dose across the plate, varying from 7 to 29 Gy, calibrated by Fricke dosimetry with ammonium thiocyanate as previously described for SER experiments. The control plate (compound alone, no radiation) was left inside the anaerobic chamber at room temperature during the irradiation period. After treatment, the cells were trypsinized and suspended in usual media + 1% penicillin-streptomycin (ThermoFisher Scientific), and 10-fold serial dilutions were plated for clonogenic survival. After 10 days, plates were stained with methylene blue (2 g/L in EtOH/H2O, 1:1 v/v) and colonies with more than 50 cells were counted. The surviving fraction (SF) was determined as: SF = PE(irradiated)/PE(control) where the plating efficiency (PE) = (No. of colonies)/(No. of cells plated). SF was plotted against radiation dose. Survival ratios (SR) were calculated: SR = (cell survival with radiation)/(cell survival with drug + radiation). Sensitizer enhancement ratios (SER) were calculated: SER = (radiation dose for 1% survival without compound)/(radiation dose for 1% survival with compound).
# HCT116/54C tumours = experiment: Tumour radiosensitisation: ex vivo clonogenic assay; assay type: in vivo, NIH-III mice
# Procedure: (§3) Specific pathogen-free six- to eight-week-old female NIH-III mice, bred in the Vernon Jansen Unit, University of Auckland, were used for animal experiments. Animals had ad libitum access to food and water and were maintained in microisolator cages on a 12 h light/dark cycle. All treatments were administered by i.v. injection at a dose of 2.2 mmol/kg and injection volume of 10 mL/kg. Compounds 2, 34 and 38 were administered as solutions in saline containing 1% DMSO or for 9–12 as solutions in saline containing 2 molar equivalents of NaHCO3. Control animals received an i.v. injection of saline at 10 mL/kg. All animal experiments were conducted under the auspices of the University of Auckland Animal Ethics Committee (approval 1781).
# (§4) Compounds were evaluated for in vivo radiosensitisation of hypoxic cells in HCT116/54C and UT-SCC-74B human tumour xenografts using clonogenic survival as an endpoint, using previously report methods. Tumours were grown subcutaneously on the flanks of NIH-III mice by injecting 5 × 10^6 HCT116/54C cells or UT-SCC-74B cells. Once tumours reached a volume of approximately 250 mm^3, mice were randomly assigned to 4 treatment groups and treated with: (A) vehicle control, (B) 10 Gy RAD only, (C) sensitiser only, or (D) sensitiser given before 10 Gy RAD. Drugs were administered as a single i.v. dose at 2.2 mmol/kg. […] Tumours were excised 18 h after treatment, and tumour cells were dissociated enzymatically and plated to determine the number of surviving (clonogenic) cells per gram of tumour tissue. SF and SR were calculated as described above. Statistical significance of drug effects was tested using one-way ANOVA with Sidak tests for multiple comparisons vs. radiation alone (Table 5).
# UT-SCC-74B tumours = experiment: as above; assay type: in vivo, NIH-III mice
# Procedure: as §3, §4
# [3] = Tolerability at maximum achievable dose, i.v.; assay type: in vivo; conditions: i.v. injection, NIH-III mice
# Text: The most promising 2-nitroimidazole 34 and 5-nitroimidazole 38 compounds were selected for in vivo evaluation on the basis of solubility, in vitro cytotoxicity and radiosensitisation data. These compounds were both well tolerated by i.v. injection in NIH-III mice at their maximum achievable dose (MAD) of 2.2 mmol/kg. This MAD was also achieved for some of our earlier compounds, but only when we employed a phosphate prodrug strategy owing to their poor solubility. […] The Cmax and AUC exceeded that achieved for earlier phosphate prodrugs 9–12, but was less than 2. On this basis we advanced both morpholine analogues into in vivo radiosensitisation studies.
# as §3
# [4] = tested on: HCT116/54C tumour xenografts; experiment: Tumour growth inhibition in combination with radiation; assay type: in vivo, NIH-III mice; conditions: HCT116/54C tumours
# Procedure: as §3
# Compounds were evaluated for their ability to inhibit tumour growth in combination with a single dose of radiation (10 Gy) in HCT116/54C or UT-SCC-74B tumour xenografts on the backs of NIH-III mice. In addition, a fractionated radiation schedule (5 Gy on Days 1, 7 and 14) was explored in HCT116/54C tumour xenografts. Mice were randomly assigned to 4 treatment groups and treated with: (A) vehicle control, (B) 10 Gy RAD only, (C) sensitiser only, or (D) sensitiser given 10 min before 10 Gy RAD. Drugs were administered by i.v. injection at 2.2 mmol/kg either as a single dose or three doses on Days 1, 7 and 14 in the fractionated study. Treatment commenced when the average tumour size reached approximately 250 mm^3, and tumour size was measured until study endpoint. Mice were placed in a custom-built lead-shielded jig that allowed irradiation of the whole tumour but shielded the mouse from radiation. Survival analysis represented the time taken for tumours to increase in relative tumour volume by 4× from the start of treatment (RTV^4). The significance of differences in activity between the groups was assessed by log-rank with Holm–Sidak multiple comparison analysis.
# [5] = anoxic, n = 3–4, read-out: IC50 Anoxic
# [6] = oxic, n = 3–4, read-out: IC50 Oxic
# [7] = 2.2 mmol/kg i.v. 5 min prior to 10 Gy radiation, surviving fraction after radiation/surviving fraction after drug + radiation
# [8] = 2.2 mmol/kg i.v. + 10 Gy, one-way ANOVA
# [9] = 2.2 mmol/kg i.v., 10 Gy, mechanism experiment (Figure 3)
compound,measurement,setting,value
O=[N+]([O-])c1cncn1CS(=O)(=O)NCCN1CCOCC1 [Compound 38],HCR,HCT116/54C cells [1]; IC50(oxic)/IC50(anoxic),11.2
same,IC50,"HCT116/54C cells [1]; anoxic, read-out: IC50 Anoxic",1.2 ± 0.1 mM
same,IC50,"HCT116/54C cells [1]; oxic, read-out: IC50 Oxic",13.7 ± 2 mM
same,IC50,UT-SCC-74B cells; [5],1.5 ± 0.3 mM
same,IC50,UT-SCC-74B cells; [6],13.1 ± 2.8 mM
same,HCR,UT-SCC-74B cells; IC50(oxic)/IC50(anoxic),8.6
same,IC50,FaDu cells; [5],1.8 ± 0.1 mM
same,IC50,FaDu cells; [6],10.6 ± 0.6 mM
same,HCR,FaDu cells; IC50(oxic)/IC50(anoxic),5.8
same,SER at 1 mM,HCT116/54C cells [2],1.39 ± 0.01
same,Sensitisation Ratio,HCT116/54C tumours; [7],3.43
same,enhancement of tumour killing of radiotherapy (RAD vs drug + RAD),HCT116/54C tumours; [8],significantly enhanced the tumour killing of radiotherapy
same,"SR, drug given 5 min before radiation",HCT116/54C tumours; [9],8.26
same,"SR, drug given 20 min after radiation",HCT116/54C tumours; [9],1.38
same,Sensitisation Ratio,UT-SCC-74B tumours; [7],11.5
same,enhancement of tumour cell killing by radiotherapy (RAD vs drug + RAD),UT-SCC-74B tumours; [8],significantly enhanced tumour cell killing by radiotherapy
same,"maximum achievable dose (MAD), well tolerated",[3],2.2 mmol/kg
same,survival (time to RTV^4) vs radiation alone,"[4]; fractionated radiation, p < 0.05",significantly increased survival compared to radiation alone
same,tumour growth delay with fractionated radiation,"[4]; qw × 3, 5 Gy, 2.2 mmol/kg i.v.",delayed tumour growth relative to radiation alone
